Structures are written as SMILES.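 Test compounds were applied to cells in 96-well plates for 48 hours at 5 doses. GI50 = concentration required for 50% inhibition of growth. TGI: total growth inhibition.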 Some results are limits rather than exact numbers.

The text below walks through data of PubChem BioAssay (NCI).

Some test systems named below: SW-620 colon; OVCAR-5 ovarian; SK-MEL-2 melanoma; MDA-MB-435; M14 melanoma; HS 578T breast; MALME-3M melanoma; A549 NSCLC; DMS 114 small cell lung; HOP-18 NSCLC.
What all share (experiment): NCI-60 cell line screen, 48 h

As to `Cc1nc2cc(O)c(O)cc2cc1Oc1ccc(NC(=O)Nc2ccc(Cl)c(Cl)c2)cc1`, the GI50 in the assay on SW-620 colon was 4.8 µM; in the assay on OVCAR-5 ovarian, 11.6 µM; in the assay on SK-MEL-2 melanoma, 8.83 µM; with MDA-MB-435, 6.99 µM; with M14 melanoma, 5.97 µM; with HS 578T breast, 12.8 µM. The GI50 is 8.6 µM with MALME-3M melanoma and 8.99 µM in the assay with A549 NSCLC. Besides, the TGI was over 32.5 µM in the assay on SW-620 colon; 29.3 µM in the assay on OVCAR-5 ovarian; 21.1 µM in the assay on SK-MEL-2 melanoma; over 32.5 µM in the assay on MDA-MB-435; 13.8 µM in the assay with M14 melanoma; over 32.5 µM in the assay with HS 578T breast. The TGI with MALME-3M melanoma amounted to 26 µM; in the assay with A549 NSCLC, 26.2 µM.
As to `CCOC(=O)[C@H]1Nc2ccc(O)cc2C2c3ccccc3CC21` (stereo partly specified), the TGI in the assay with SW-620 colon, in the assay with OVCAR-5 ovarian, with SK-MEL-2 melanoma, with M14 melanoma, in the assay on DMS 114 small cell lung and with MALME-3M melanoma was over 100 µM throughout. The TGI with A549 NSCLC and in the assay with HOP-18 NSCLC was over 100 µM each time.
For `COc1ccc(C(=O)Nc2cccc(C3CC(=O)c4c(cc(OC)c(OC)c4OC)O3)c2)cc1` (stereo unspecified), the GI50 is 0.691 µM with SW-620 colon; 4.98 µM in the assay with OVCAR-5 ovarian; 2.09 µM in the assay with SK-MEL-2 melanoma; 0.276 µM in the assay with MDA-MB-435; 0.534 µM in the assay with M14 melanoma; 2 µM in the assay on HS 578T breast. Moreover, the values for the GI50 with MALME-3M melanoma and in the assay with A549 NSCLC were 1.56 µM and 3.31 µM, respectively. Besides, the TGI was over 100 µM with SW-620 colon; over 100 µM in the assay with OVCAR-5 ovarian; 27.1 µM in the assay on SK-MEL-2 melanoma; 1.4 µM in the assay on MDA-MB-435; 41.7 µM in the assay with M14 melanoma; 42.4 µM with HS 578T breast. In addition, the TGI in the assay with MALME-3M melanoma is 32.6 µM; in the assay on A549 NSCLC, over 100 µM.
As for `Cc1c2c(nn1-c1ccc(S/N=C3\SCC(=O)CN3c3ccccc3)cc1)-c1ccccc1CC2`, the GI50 in the assay on SW-620 colon is 19.1 µM; in the assay with OVCAR-5 ovarian, over 50 µM; in the assay with SK-MEL-2 melanoma it was 18.2 µM; with MDA-MB-435 it was 16.8 µM; with M14 melanoma it was 13.4 µM; in the assay with HS 578T breast, 15.5 µM. For the same molecule, the GI50 in the assay on MALME-3M melanoma and in the assay on A549 NSCLC was over 50 µM in each case. For the same molecule, the TGI is over 50 µM with SW-620 colon; over 50 µM with OVCAR-5 ovarian; 47 µM with SK-MEL-2 melanoma; over 50 µM in the assay on MDA-MB-435; 43.7 µM with M14 melanoma; over 50 µM in the assay with HS 578T breast. Besides, the TGI with MALME-3M melanoma and in the assay on A549 NSCLC was over 50 µM each time.
As to `C=C1C(=O)O[C@H]2[C@H]1CC/C(COC(=O)CCC(=O)OC/C1=C/CC[C@@]3(C)O[C@H]3[C@H]3OC(=O)C(=C)[C@@H]3CC1)=C\CC[C@@]1(C)O[C@@H]21`, the GI50 was 0.602 µM in the assay with SW-620 colon; 2.13 µM with OVCAR-5 ovarian; 2.89 µM with SK-MEL-2 melanoma; 1.84 µM with MDA-MB-435; 1.6 µM with M14 melanoma; 2.74 µM in the assay with HS 578T breast. Moreover, the results for the GI50 in the assay with MALME-3M melanoma and with A549 NSCLC were 1.14 µM and 13.7 µM, respectively. Besides, the TGI with SW-620 colon worked out at 2.1 µM; in the assay with OVCAR-5 ovarian it was 6.03 µM; in the assay with SK-MEL-2 melanoma, 9.38 µM; with MDA-MB-435, 4.65 µM; in the assay with M14 melanoma, 5.32 µM; with HS 578T breast it was 16 µM. The TGI is 2.88 µM in the assay on MALME-3M melanoma and 30 µM with A549 NSCLC.
For the molecule `O=C1C(c2ccccc2)=C(c2ccccc2)C(c2ccccc2)/C1=C1\C(=O)C(c2ccccc2)=C(c2ccccc2)C1c1ccccc1` (stereo unspecified), the TGI in the assay with SW-620 colon, with OVCAR-5 ovarian, with SK-MEL-2 melanoma, with M14 melanoma, in the assay with DMS 114 small cell lung and with MALME-3M melanoma was over 100 µM in each case. The TGI in the assay with A549 NSCLC and in the assay on HOP-18 NSCLC was over 100 µM throughout.
With `O=Cc1cc(O)c(O)c(O)c1-c1c(C=O)cc(O)c(O)c1O`, the TGI in the assay with SW-620 colon, with OVCAR-5 ovarian, with SK-MEL-2 melanoma, in the assay on M14 melanoma, in the assay with DMS 114 small cell lung and in the assay on MALME-3M melanoma was over 100 µM in each case. Besides, the TGI in the assay on A549 NSCLC and in the assay on HOP-18 NSCLC was over 100 µM each time.
Consider `O=C1NC(=NCc2ccccn2)S/C1=C\c1ccc2ncccc2c1`, for which the GI50 is 7.81 µM in the assay on SW-620 colon; over 25 µM in the assay with OVCAR-5 ovarian; 10.7 µM in the assay with SK-MEL-2 melanoma; 7.64 µM with MDA-MB-435; 11.6 µM in the assay with M14 melanoma; 6.12 µM with HS 578T breast. Besides, the GI50 with MALME-3M melanoma was over 13.1 µM; in the assay with A549 NSCLC, 8.41 µM. Besides, the TGI in the assay with SW-620 colon is over 25 µM; with OVCAR-5 ovarian it was over 25 µM; in the assay on SK-MEL-2 melanoma it was over 22.8 µM; with MDA-MB-435 it was over 21.9 µM; in the assay with M14 melanoma, over 25 µM; with HS 578T breast, 21.4 µM. The figures for the TGI with MALME-3M melanoma and in the assay with A549 NSCLC were over 23.3 µM and over 25 µM, respectively.
On to `CSC(=S)N/N=C(\C)c1ccccn1`, for which the GI50 was 0.169 µM in the assay on SW-620 colon; 0.143 µM in the assay with OVCAR-5 ovarian; 0.329 µM in the assay on SK-MEL-2 melanoma; 0.407 µM in the assay on MDA-MB-435; 0.0997 µM in the assay on M14 melanoma; 2.82 µM in the assay with HS 578T breast. Also, the GI50 is 0.177 µM in the assay with MALME-3M melanoma and 0.311 µM in the assay on A549 NSCLC. The TGI in the assay on SW-620 colon is 17.3 µM; in the assay with OVCAR-5 ovarian, 22.2 µM; with SK-MEL-2 melanoma, 3.75 µM; with MDA-MB-435 it was 16.6 µM; in the assay with M14 melanoma, 2.33 µM; in the assay on HS 578T breast, 36.3 µM. Also, the figures for the TGI with MALME-3M melanoma and in the assay on A549 NSCLC were 9.1 µM and 18 µM, respectively.
Regarding `CCOc1ccc2c(c1)/C(=C\C=C\C1CC(C)C3CC(OCC)CCC3N1CC)CC(C)N2CC` (stereo unspecified), the GI50 is 0.73 µM with SW-620 colon; 1.23 µM with OVCAR-5 ovarian; 1.66 µM in the assay with SK-MEL-2 melanoma; 0.905 µM in the assay with MDA-MB-435; 1.43 µM in the assay on M14 melanoma; 1.59 µM with HS 578T breast. For the same molecule, the GI50 is 1.61 µM with MALME-3M melanoma and 0.304 µM in the assay with A549 NSCLC. The TGI with SW-620 colon is 2.59 µM; in the assay with OVCAR-5 ovarian, 2.64 µM; in the assay with SK-MEL-2 melanoma, 3.35 µM; in the assay with MDA-MB-435, 2.31 µM; in the assay on M14 melanoma it was 3 µM; in the assay on HS 578T breast, 6.81 µM. Further, the results for the TGI with MALME-3M melanoma and with A549 NSCLC were 3.42 µM and 1.46 µM, respectively.
